Experimental data: US12173309B2, “Compounds for increasing genome editing efficiency” (Max-Planck-Gesellschaft zur Förderung der Wissenschaften …, priority 2017, dated 2024)

tested on: primary Human Epidermal Keratinocytes (HEKa); experiment: PGE of HPRT with Cpf1 electroporation in non-pluripotent cells; format: cell-based
Method: Stem cell lines cultured for this project included human 409-B2 hiPSC ([…], Riken BioResource Center) and SC102A1 hiPSC ([…], BioCat GmbH), chimpanzee SandraA ciPSC (female, Mora-Bermúdez et al. 201637), as well as H9 hESC ([…], WiCell Research Institute, Ethics permit AZ 3.04.02/0118). Stem cell lines were grown on Matrigel Matrix (Corning, 35248), and mTeSR1 (StemCell Technologies, 05851) with mTeSR1 supplement (StemCell Technologies, 05852) was used as culture media. Non-pluripotent cell types and their respective media used were: HEK293 (ECACC, 85120602) with DMEM/F-12 (Gibco, 31330-038) supplemented with 10% FBS (SIGMA, F2442) and 1% NEAA (SIGMA, M7145); K562 (ECACC, 89121407) with IMDM (ThermoFisher, 12440053) supplemented with 10% FBS; CD4^+ T (HemaCare, PB04C-1) with RPMI 1640 (ThermoFisher, 11875-093) supplemented with 10% FBS, and activated with Dynabeads Human T-Activator (CD3/CD28) (ThermoFisher, 11131D); CD34^+ progenitor (HemaCare, M34C-1) with StemSpan SFEM (Stemcell, 09600) supplemented with StemSpan CC110 (StemCell, 02697); and HEKa (Gibco, C0055C) with Medium 154 (ThermoFisher, M154500) and Human Keratinocyte Growth Supplement (ThermoFisher, S0015). Cells were grown at 37° C. in a humidified incubator gassed with 5% CO2. Media was replaced every day for stem cells and every second day for non-pluripotent cell lines. Cell cultures were maintained 4-6 days until ˜80% confluency, and subcultured at a 1:6 to 1:10 dilution. Adherent cells were dissociated using EDTA (VWR, 437012C). The media was supplemented with 10 μM Rho-associated protein kinase (ROCK) inhibitor Y-27632 (Calbiochem, 688000) after cell splitting for one day in order to increase cell survival.
The recombinant A.s. Cpf1 and S.p. Cas9 protein and electroporation enhancer was ordered from IDT (Coralville, USA) and nucleofection was done using the manufacturer's protocol, except for the following alterations. […] Cells were counted using the Countess Automated Cell Counter (Invitrogen). […]

| Compound | effect on PGE efficiency |
| --- | --- |
| NS(=O)(=O)OC[C@@H]1C[C@@H](n2ccc3c(N[C@H]4CCc5ccccc54)ncnc32)C[C@@H]1O [MLN4924, Pevonedistat] | disruptive effect |
| CC(C)C1=CC23CCC4C(C)(C(=O)O)CCCC4(C)C2CC1C(C(=O)O)C3C(=O)O (stereo not drawn) [NSC 15520, Fumaropimaric acid] | disruptive effect |
| O=c1cc(N2CCOCC2)oc2c1ccc1ccccc12 [NU7026] | disruptive effect |
